From patent publication US20220213047A1, “CARBONIC ANHYDRASE INHIBITORS FOR TREATMENT OF NEISSERIA GONORRHOEAE INFECTION” (Purdue Research Foundation, priority 2021, published 2022)
In brackets after ≈: the same amount, converted by molar mass. Like-named read-outs stand apart in the source and are kept apart here.

What was measured:
N. gonorrhoeae [1] = assay: MIC by agar dilution on a larger panel of N. gonorrhoeae strains; format: cell-based, Neisseria gonorrhoeae; conditions: for MIC / MIC50 / MIC90: Neisseria gonorrhoeae; for Original MIC: in brackets in Table 8
Protocol: These tests were performed in normal culture conditions with standard CO2 levels and in CO2 (5% in incubator) conditions.

Enterococcus = assay: MIC50 against pathogenic and commensal bacteria: Enterococcus; format: cell-based; conditions: Enterococcus (49 strains); normal
From the text: (§1) We have shown that CAIs display a narrow-spectrum of activity (Table 6). We have previously shown that CAIs have potential as anti-enterococcal agents for decolonization of the gut and treating systemic vancomycin-resistant enterococci (VRE) infections without affecting commensal strains common in the human microbiome or other pathogenic bacteria. […] The extremely narrow spectrum of this class of inhibitors would be a positive for clinical use as the molecules: 1) would not have deleterious effects on normal microbiota, and 2) would have less opportunity for resistance to arise to other important pathogenic strains aside from VRE.

Bifidobacterium sp = assay: MIC50 against pathogenic and commensal bacteria: Bifidobacterium sp; format: cell-based; conditions: Bifidobacterium sp (18 strains); normal
From the text: as §1

Bacteroides = assay: MIC50 against pathogenic and commensal bacteria: Bacteroides; format: cell-based; conditions: Bacteroides (9 strains); normal
From the text: as §1

L. jensenii = assay: MIC50 against pathogenic and commensal bacteria: L. jensenii; format: cell-based; conditions: Lactobacillus jensenii; L. jensenii (3 strains); normal
From the text: as §1

L. rhamnosus = assay: MIC50 against pathogenic and commensal bacteria: L. rhamnosus; format: cell-based; conditions: Lacticaseibacillus rhamnosus; L. rhamnosus (1 strain); normal
From the text: as §1

E. coli = assay: MIC50 against pathogenic and commensal bacteria: E. coli; format: cell-based; conditions: Escherichia coli; E. coli (8 strains); normal
From the text: as §1

S. pneumoniae = assay: MIC50 against pathogenic and commensal bacteria: S. pneumoniae; format: cell-based; conditions: Streptococcus pneumoniae; S. pneumoniae (4 strains); normal
From the text: as §1

E. coli TolC mutant = assay: MIC50 against pathogenic and commensal bacteria: E. coli TolC mutant; format: cell-based; conditions: Escherichia coli
From the text: as §1

Enterobacter spp. = assay: MIC50 against pathogenic and commensal bacteria: Enterobacter spp.; format: cell-based; conditions: Enterobacter spp. (4 strains); normal
From the text: as §1

N. gonorrhoeae [2] = assay: Post-antibiotic effect (PAE); format: cell-based; conditions: after exposure to 10×MIC for 1 hour
N. gonorrhoeae [3] = assay: Checkerboard assay, synergy with AZI; format: cell-based; conditions: combination with AZI, standard checkerboard assay
From the text: CAIs work synergistically with approved antibiotics—Dual therapy with ceftriaxone and azithromycin is the recommended approach to treat infections caused by N. gonorrhoeae. The use of two antibiotics in conjunction is thought to curb the rapid emergence of resistance to either antibiotic, if used alone. Thus, we investigated the potential of CAIs to be used in combination with other antibiotics against N. gonorrhoeae^56 (FIG. 5).

[4] = system: intracellular N. gonorrhoeae; assay: Intracellular clearance of N. gonorrhoeae in infected endocervical cells (End1/E6E7); format: cell-based; conditions: 5×MIC, 24 hours
From the text: Intracellular clearance of N. gonorrhoeae—N. gonorrhoeae is known to invade epithelial cells of the genital tract and cross the epithelial barrier into the subepithelial space^59. Previous studies have shown that N. gonorrhoeae can survive inside host cells and pass epithelial cell layers (a key step in causing disseminated infections)^60,61. Therefore, a drug candidate must also be able to kill intracellular N. gonorrhoeae in order to be an effective therapeutic. Also, we were concerned that CAIs have reduced activity in high-CO2 conditions and may not be suitable to treat intracellular infection. Thus, we examined CAIs ability to reduce the burden of intracellular N. gonorrhoeae present in infected endocervical cells^56.

[5] = strain panel of Table 9, CO2 (5% CO2 containing air)

Compound: CCOc1ccc2nc(S(N)(=O)=O)sc2c1 [Ethoxzolamide]
- MIC (N. gonorrhoeae [1]; N. gonorrhoeae 197, CO2 (5% CO2 containing air), read-out: MIC): 128 µg/mL (≈ 496 µM)
- MIC (N. gonorrhoeae [1]; N. gonorrhoeae 197, Non CO2 (ambient air), read-out: MIC): 0.25 µg/mL (≈ 0.968 µM)
- MIC (N. gonorrhoeae [1]; N. gonorrhoeae 198, CO2 (5% CO2 containing air), read-out: MIC): > 128 µg/mL
- MIC (N. gonorrhoeae [1]; N. gonorrhoeae 198, Non CO2 (ambient air), read-out: MIC): 0.25 µg/mL (≈ 0.968 µM)
- MIC (N. gonorrhoeae [1]; N. gonorrhoeae 200, CO2 (5% CO2 containing air), read-out: MIC): > 128 µg/mL
- MIC (N. gonorrhoeae [1]; N. gonorrhoeae 200, Non CO2 (ambient air), read-out: MIC): 0.25 µg/mL (≈ 0.968 µM)
- MIC (N. gonorrhoeae [1]; N. gonorrhoeae 202, CO2 (5% CO2 containing air), read-out: MIC): 128 µg/mL (≈ 496 µM)
- MIC (N. gonorrhoeae [1]; N. gonorrhoeae 202, Non CO2 (ambient air), read-out: MIC): 0.06 µg/mL (≈ 0.232 µM)
- MIC (N. gonorrhoeae [1]; N. gonorrhoeae 203, CO2 (5% CO2 containing air), read-out: MIC): 64 µg/mL (≈ 248 µM)
- MIC (N. gonorrhoeae [1]; N. gonorrhoeae 205, CO2 (5% CO2 containing air), read-out: MIC): 128 µg/mL (≈ 496 µM)
- MIC (N. gonorrhoeae [1]; N. gonorrhoeae 206, CO2 (5% CO2 containing air), read-out: MIC): > 128 µg/mL
- MIC (N. gonorrhoeae [1]; N. gonorrhoeae 207, CO2 (5% CO2 containing air), read-out: MIC): 64 µg/mL (≈ 248 µM)
- MIC (N. gonorrhoeae [1]; N. gonorrhoeae 208, CO2 (5% CO2 containing air), read-out: MIC): > 128 µg/mL
- MIC (N. gonorrhoeae [1]; N. gonorrhoeae 209, CO2 (5% CO2 containing air), read-out: MIC): > 128 µg/mL
- MIC (N. gonorrhoeae [1]; N. gonorrhoeae 209, Non CO2 (ambient air), read-out: MIC): 0.06 µg/mL (≈ 0.232 µM)
- MIC (N. gonorrhoeae [1]; N. gonorrhoeae 210, CO2 (5% CO2 containing air), read-out: MIC): 64 µg/mL (≈ 248 µM)
- MIC (N. gonorrhoeae [1]; N. gonorrhoeae 211, CO2 (5% CO2 containing air), read-out: MIC): 64 µg/mL (≈ 248 µM)
- MIC (N. gonorrhoeae [1]; N. gonorrhoeae 211, Non CO2 (ambient air), read-out: MIC): 0.5 µg/mL (≈ 1.94 µM)
- MIC (N. gonorrhoeae [1]; N. gonorrhoeae 212, CO2 (5% CO2 containing air), read-out: MIC): 64 µg/mL (≈ 248 µM)
- MIC (N. gonorrhoeae [1]; N. gonorrhoeae 212, Non CO2 (ambient air), read-out: MIC): 0.25 µg/mL (≈ 0.968 µM)
- MIC (N. gonorrhoeae [1]; N. gonorrhoeae 213, CO2 (5% CO2 containing air), read-out: MIC): 64 µg/mL (≈ 248 µM)
- MIC (N. gonorrhoeae [1]; N. gonorrhoeae 214, CO2 (5% CO2 containing air), read-out: MIC): 64 µg/mL (≈ 248 µM)
- MIC (N. gonorrhoeae [1]; N. gonorrhoeae 214, Non CO2 (ambient air), read-out: MIC): 0.25 µg/mL (≈ 0.968 µM)
- MIC50 (N. gonorrhoeae [1]; N. gonorrhoeae (39 strains), CO2 (5% CO2 in the incubator)): > 128 µg/mL
- MIC50 (N. gonorrhoeae [1]; [5]): > 128 µg/mL
- MIC90 (N. gonorrhoeae [1]; [5]): > 128 µg/mL
- MIC (N. gonorrhoeae [1]; strain panel of Table 9, CO2 (5% CO2 containing air), read-out: Modal MIC): > 128 µg/mL
- MIC90 (N. gonorrhoeae [1]; strain panel of Table 9, Non CO2 (ambient air, standard CO2 conditions)): 0.5 µg/mL (≈ 1.94 µM)
- Original MIC (N. gonorrhoeae [1]; Ng 197): 0.25 µg/mL
- Original MIC (N. gonorrhoeae [1]; Ng 202): 0.06 µg/mL
- MIC50 (Enterococcus): 4 µg/mL (≈ 15.5 µM)
- MIC50 (Bifidobacterium sp): > 256 µg/mL
- MIC50 (Bacteroides): > 256 µg/mL
- MIC50 (L. jensenii): > 256 µg/mL
- MIC50 (L. rhamnosus): > 256 µg/mL
- MIC50 (E. coli): > 256 µg/mL
- MIC50 (S. pneumoniae): > 512 µg/mL
- MIC50 (E. coli TolC mutant): > 256 µg/mL
- MIC50 (Enterobacter spp.): > 256 µg/mL
- PAE (N. gonorrhoeae [2]; Ng 181): 10 h
- PAE (N. gonorrhoeae [2]; Ng 186): 10 h
- PAE (N. gonorrhoeae [2]; Ng 194): 10 h
- PAE (N. gonorrhoeae [2]; Ng 198): 10 h
- PAE (N. gonorrhoeae [2]; clinical isolates of N. gonorrhoeae): 10 h
- FIC (N. gonorrhoeae [3]): 0.240
- reduction in N. gonorrhoeae inside infected endocervical cells [4]: 5.8 log10
